≈ marks a conversion by molar mass, not a printed value.
Experiments:
[1] = system: Escherichia coli; assay: Antimicrobial activity against Escherichia coli 07-819TC1 transconjugant expressing IncI1 plasmid-encoded beta lactamase CTX-M-1 by Etest; type: functional
[2] = system: Salmonella typhimurium; assay: Antimicrobial activity against Salmonella Typhimurium 08-2211 by Etest; type: functional, Salmonella enterica subsp. enterica serovar Typhimurium; details: Salmonella enterica
[3] = system: Escherichia coli; assay: Antimicrobial activity against Escherichia coli 03-8748TC1 transconjugant expressing IncI1 plasmid-encoded beta lactamase CTX-M-1 by Etest; type: functional
[4] = system: Escherichia coli; assay: Antimicrobial activity against Escherichia coli 05-9280TC1 transconjugant expressing IncI1 plasmid-encoded beta lactamase CTX-M-1 by Etest; type: functional
[5] = system: Escherichia coli; assay: Antimicrobial activity against Escherichia coli 08-1537TC1 transconjugant expressing IncI1 plasmid-encoded beta lactamase CTX-M-1 by Etest
[6] = system: Escherichia coli; assay: Antimicrobial activity against Escherichia coli 06CEB6542SALTC1 transconjugant expressing IncI1 plasmid-encoded beta lactamase CTX-M-1 by Etest; type: functional
[7] = Antimicrobial activity against Salmonella London 07-819 by Etest; type: functional, Salmonella enterica subsp. enterica serovar London; details: Salmonella enterica
[8] = system: Salmonella; assay: Antimicrobial activity against Salmonella Llandoff 06CEB6542SAL by Etest; type: functional
[9] = system: Salmonella typhimurium; assay: Antimicrobial activity against Salmonella Typhimurium 08-843 by Etest; type: functional, Salmonella enterica subsp. enterica serovar Typhimurium; details: Salmonella enterica
[10] = Antimicrobial activity against Salmonella 4,5,12:i:- 08-2712 by Etest; type: functional, Salmonella enterica subsp. enterica serovar 4,[5],12:i:-; details: Salmonella enterica
[11] = system: Salmonella typhimurium; assay: Antimicrobial activity against Salmonella Typhimurium 08-1537 by Etest; type: functional, Salmonella enterica subsp. enterica serovar Typhimurium; details: Salmonella enterica
[12] = system: Salmonella typhimurium; assay: Antimicrobial activity against Salmonella Typhimurium 06-6550 by Etest; type: functional, Salmonella enterica subsp. enterica serovar Typhimurium; details: Salmonella enterica
[13] = system: Salmonella typhimurium; assay: Antimicrobial activity against Salmonella Typhimurium 05-9280 by Etest; type: functional, Salmonella enterica subsp. enterica serovar Typhimurium; details: Salmonella enterica
[14] = system: Escherichia coli; assay: Antimicrobial activity against Escherichia coli 08-2712TC1 transconjugant expressing IncI1 plasmid-encoded beta lactamase CTX-M-1 by Etest
[15] = system: Escherichia coli; assay: Antimicrobial activity against Escherichia coli 06-6550TC1 transconjugant expressing IncI1 plasmid-encoded beta lactamase CTX-M-1 by Etest; type: functional
[16] = Antimicrobial activity against Salmonella Newport 03-8748 by Etest; type: functional, Salmonella enterica subsp. enterica serovar Newport; details: Salmonella enterica
[17] = system: Salmonella typhimurium; assay: Antimicrobial activity against Salmonella Typhimurium 08-1745 by Etest; type: functional, Salmonella enterica subsp. enterica serovar Typhimurium; details: Salmonella enterica
[18] = system: Escherichia coli; assay: Antimicrobial activity against Escherichia coli 08-843TC1 transconjugant expressing IncI1 plasmid-encoded beta lactamase CTX-M-1 by Etest; type: functional

In the case of `CC(C)(O/N=C(\C(=O)N[C@@H]1C(=O)N2C(C(=O)[O-])=C(C[n+]3ccccc3)CS[C@H]12)c1csc(N)n1)C(=O)O` [CEFTAZIDIME], the MIC [1] is reported as 256 µg/mL (≈ 468 µM), the MIC [2] is reported as 256 µg/mL (≈ 468 µM) and the MIC [3] is reported as 256 µg/mL (≈ 468 µM). The MIC [4] was > 256 µg/mL, the MIC [5] was 128 µg/mL (≈ 234 µM) and the MIC [6] was 8 µg/mL. For the same compound, the MIC [7] was > 256 µg/mL, the MIC [8] was 64 µg/mL (≈ 117 µM) and the MIC [9] was 256 µg/mL (≈ 468 µM). For the same compound, the MIC [10] was 256 µg/mL (≈ 468 µM), the MIC [11] was > 256 µg/mL and the MIC [12] was 256 µg/mL (≈ 468 µM). The MIC [13] was > 256 µg/mL, the MIC [14] was 64 µg/mL (≈ 117 µM) and the MIC [15] was 64 µg/mL (≈ 117 µM). The MIC [16] was > 256 µg/mL, the MIC [17] was > 256 µg/mL and the MIC [18] was 256 µg/mL (≈ 468 µM).
`CO/N=C(\C(=O)N[C@@H]1C(=O)N2C(C(=O)O)=C(CSc3nc(=O)c(O)nn3C)CS[C@H]12)c1csc(N)n1` [CEFTRIAXONE] gave an MIC [1] of 4 µg/mL (≈ 7.21 µM), an MIC [2] of 8 µg/mL (≈ 14.4 µM) and an MIC [3] of 2 µg/mL (≈ 3.61 µM). It also gave an MIC [4] of 32 µg/mL (≈ 57.7 µM), an MIC [5] of 8 µg/mL (≈ 14.4 µM) and an MIC [6] of 0.5 µg/mL. It also gave an MIC [7] of 8 µg/mL (≈ 14.4 µM), an MIC [8] of 4 µg/mL (≈ 7.21 µM) and an MIC [9] of 16 µg/mL (≈ 28.9 µM). It also gave an MIC [10] of 16 µg/mL (≈ 28.9 µM), an MIC [11] of 64 µg/mL (≈ 115 µM) and an MIC [12] of 16 µg/mL (≈ 28.9 µM). It also gave an MIC [13] of 32 µg/mL (≈ 57.7 µM), an MIC [14] of 8 µg/mL (≈ 14.4 µM) and an MIC [15] of 4 µg/mL (≈ 7.21 µM). The MIC [16] was 8 µg/mL (≈ 14.4 µM), the MIC [17] was 16 µg/mL (≈ 28.9 µM) and the MIC [18] was 8 µg/mL (≈ 14.4 µM).

From ChEMBL document CHEMBL1671724, “IncI1 plasmid carrying extended-spectrum-beta-lactamase gene blaCTX-M-1 in Salmonella enterica isolates from poultry and humans in France, 2003 to 2008” (2010)
